From patent publication US8883470B2, “Fermentation of carbohydrate” (Anitox Corporation, priority 2009, dated 2014)
Read-outs that look alike come from different tables or passages of the source.

Legend:
[1] = test system: Lactobacillus plantarum (B-4496); conditions: control also 0
Procedure: (§1) Whole corn obtained from a commercial source was treated with formalin (37% formaldehyde solution) at 0, 0.9, 1.8 and 2.7 kg/MT. After 24 h, 30 g of corn from each treatment was finely ground and added to glass fermenters with water, enzyme and yeast as described below. Lactobacillus plantarum (B-4496) grown in MRS broth was added to the fermentation bottles (0.2 ml of 6.2×10^5 cfu/g). Samples were taken after 72 hours fermentation for yeast and Lactobacillus counts. The whole content of the fermentations bottles were centrifuged for 30 minutes at 5000 rpm, filtered through cheesecloth and through a 0.45 u tilter to quantify ethanol production. Treatments are listed on the following table

[2] = test system: Yeast
Procedure: as §1

[3] = test system: Lactobacillus
Procedure: (§2) Ethanol production and microbiological profile were analyzed in four fermentation studies using corn treated with 0 (control), 0.45 and 0.90 Kg/MT Formaldehyde. Ground corn and water were mixed and incubated at room temperature in a air-tight 250-ml fermenter jars for 6 hours. This was done in order to increase the naturally occurring Lactobacillus in corn. Previous studies have shown that the level of Lactobacillus is less than 100 cfu/gr in corn. The other reagents were added into the fermenters as described in the following table.
(§3) After the addition of all the reagents, fermenters were sealed with a cap containing a water trap. Fermenters were kept under constant stirring (low speed) at room temperature (21-23° C.) for 72 hours before sampling for yeast, Lactobacillus and alcohol production. Lactobacillus counts were determined on MRS broth containing 1.5% Difco™ Agar. Plates were incubated in an anaerobic chamber at 37-C for 48 hours and colonies enumerated. Yeast counts were determined on PDA plates. Plates were incubated at 27° C. for 48 hours and colonies enumerated. Alcohol was determined by FT-IR (FOSS system).

[4] = test system: Yeast; remark: listed apart in the source
Procedure: as §2, §3

[5] = test system: Wild Lactobacillus
Procedure: (§4) Wild Lactobacillus and yeast/mold profile were determined in four studies using corn treated with 0 (control), 0.45 and 0.90 Kg/MT Formaldehyde (HCHO). Ground corn and water were mixed and incubated at room temperature (21-23° C.) in an anaerobic environment for 24 hours. To 5 gr of ground corn 45 ml of Butterfield was added and incubated overnight in a closed container while stirring at room temperature. After incubation, samples were taken to enumerate wild yeast/mold and Lactobacillus.

[6] = test system: wild yeast/mold
Procedure: as §4

[7] = test system: Yeast; remark: listed apart in the source
Procedure: (§5) After 24 h, 30 g of corn from each treatment was finely ground and added to glass fermenters with water, enzyme and yeast as described below. Lactobacillus plantarum (B-4496) grown in MRS broth was added to the fermentation bottles (0.1 ml of 6.2×10^10 cfu/mL). Samples were taken after 72 hours fermentation for yeast and Lactobacillus counts.

[8] = test system: Lactobacillus plantarum (B-4496)
Procedure: as §5

[9] = test system: Lactobacillus; conditions: 600 mg/L, cited from earlier work
[10] = test system: Lactobacillus; conditions: during fermentation; cited from earlier work
[11] = test system: Yeast; conditions: 8 g/L; beet molasses batch fermentation; cited from earlier work
[12] = test system: yeast populations; conditions: 100 to 400 mg/L; cited from earlier work
[13] = test system: Yeast; conditions: cited from earlier work

Molecule: C=O [Formaldehyde, formaldehyde]
- Lactobacillus (cfu/ml) 72 h ([1]; 0.9 kg/MT): 0 cfu/ml
- Lactobacillus (cfu/ml) 72 h ([1]; 1.8 kg/MT): 0 cfu/ml
- Lactobacillus (cfu/ml) 72 h ([1]; 2.7 kg/MT): 0 cfu/ml
- Yeast (cfu/ml) 72 h ([2]; 0.9 kg/MT): 9.50 × 10^8 cfu/ml
- Yeast (cfu/ml) 72 h ([2]; 1.8 kg/MT): 6.60 × 10^8 cfu/ml
- Yeast (cfu/ml) 72 h ([2]; 2.7 kg/MT): 4.20 × 10^8 cfu/ml
- Lactobacillus (cfu/gr) after 72-h Fermentation ([3]; 0.45 kg/MT, Study 9): 8.5 × 10^8 cfu/gr
- Lactobacillus (cfu/gr) after 72-h Fermentation ([3]; 0.45 kg/MT, Study 10): 5.2 × 10^8 cfu/gr
- Lactobacillus (cfu/gr) after 72-h Fermentation ([3]; 0.45 kg/MT, Study 12): 8.9 × 10^8 cfu/gr
- Lactobacillus (cfu/gr) after 72-h Fermentation ([3]; 0.9 kg/MT, Study 9): 7.4 × 10^8 cfu/gr
- Lactobacillus (cfu/gr) after 72-h Fermentation ([3]; 0.9 kg/MT, Study 10): 4.3 × 10^8 cfu/gr
- Lactobacillus (cfu/gr) after 72-h Fermentation ([3]; 0.9 kg/MT, Study 12): 9.4 × 10^8 cfu/gr
- Yeast (cfu/gr) after 72-h Fermentation ([4]; 0.45 kg/MT, Study 9): 9.5 × 10^8 cfu/gr
- Yeast (cfu/gr) after 72-h Fermentation ([4]; 0.45 kg/MT, Study 10): 1.2 × 10^9 cfu/gr
- Yeast (cfu/gr) after 72-h Fermentation ([4]; 0.45 kg/MT, Study 11): 4.7 × 10^9 cfu/gr
- Yeast (cfu/gr) after 72-h Fermentation ([4]; 0.45 kg/MT, Study 12): 1.8 × 10^9 cfu/gr
- Yeast (cfu/gr) after 72-h Fermentation ([4]; 0.9 kg/MT, Study 9): 7.4 × 10^8 cfu/gr
- Yeast (cfu/gr) after 72-h Fermentation ([4]; 0.9 kg/MT, Study 10): 1.1 × 10^9 cfu/gr
- Yeast (cfu/gr) after 72-h Fermentation ([4]; 0.9 kg/MT, Study 11): 3.6 × 10^9 cfu/gr
- Yeast (cfu/gr) after 72-h Fermentation ([4]; 0.9 kg/MT, Study 12): 1.8 × 10^9 cfu/gr
- Lactobacillus (cfu/gr) after 24-h Incubation ([5]; 0.45 kg/MT, Study 1): 4.0 × 10^5 cfu/gr
- Lactobacillus (cfu/gr) after 24-h Incubation ([5]; 0.45 kg/MT, Study 2): 9.3 × 10^5 cfu/gr
- Lactobacillus (cfu/gr) after 24-h Incubation ([5]; 0.45 kg/MT, Study 3): 2.9 × 10^4 cfu/gr
- Lactobacillus (cfu/gr) after 24-h Incubation ([5]; 0.45 kg/MT, Study 4): 7.7 × 10^5 cfu/gr
- Lactobacillus (cfu/gr) after 24-h Incubation ([5]; 0.9 kg/MT, Study 1): 6.2 × 10^4 cfu/gr
- Lactobacillus (cfu/gr) after 24-h Incubation ([5]; 0.9 kg/MT, Study 2): 1.2 × 10^4 cfu/gr
- Lactobacillus (cfu/gr) after 24-h Incubation ([5]; 0.9 kg/MT, Study 3): 9.0 × 10^3 cfu/gr
- Lactobacillus (cfu/gr) after 24-h Incubation ([5]; 0.9 kg/MT, Study 4): 8.1 × 10^4 cfu/gr
- Yeast (cfu/gr) after 24-h Incubation ([6]; 0.45 kg/MT, Study 1): 3.0 × 10^5 cfu/gr
- Yeast (cfu/gr) after 24-h Incubation ([6]; 0.45 kg/MT, Study 2): 7.0 × 10^5 cfu/gr
- Yeast (cfu/gr) after 24-h Incubation ([6]; 0.45 kg/MT, Study 3): 1.6 × 10^5 cfu/gr
- Yeast (cfu/gr) after 24-h Incubation ([6]; 0.45 kg/MT, Study 4): 3.2 × 10^5 cfu/gr
- Yeast (cfu/gr) after 24-h Incubation ([6]; 0.9 kg/MT, Study 1): 7.6 × 10^4 cfu/gr
- Yeast (cfu/gr) after 24-h Incubation ([6]; 0.9 kg/MT, Study 2): 5.6 × 10^6 cfu/gr
- Yeast (cfu/gr) after 24-h Incubation ([6]; 0.9 kg/MT, Study 3): 2.0 × 10^3 cfu/gr
- Yeast (cfu/gr) after 24-h Incubation ([6]; 0.9 kg/MT, Study 4): 2.6 × 10^5 cfu/gr
- Yeast (cfu/ml) 72 h ([7]; 0.9 kg/MT): 8.8 × 10^8 cfu/ml
- Yeast (cfu/ml) 72 h ([7]; 1.8 kg/MT): 6.6 × 10^8 cfu/ml
- Yeast (cfu/ml) 72 h ([7]; 2.7 kg/MT): 8.0 × 10^8 cfu/ml
- Lactobacillus (cfu/ml) 72 h ([8]; 0.9 kg/MT): 9.8 × 10^7 cfu/ml
- Lactobacillus (cfu/ml) 72 h ([8]; 1.8 kg/MT): 4.7 × 10^7 cfu/ml
- Lactobacillus (cfu/ml) 72 h ([8]; 2.7 kg/MT): 3.7 × 10^7 cfu/ml
- decrease in cfu's of Lactobacillus ([8]; Lactobacillus added at higher concentrations): 1 log

Molecule: O=C(O)CCC(=O)O [Succinic acid]
- reduction of Lactobacillus concentrations ([9]; by itself): 78%
- reduction of Lactobacillus concentrations ([9]; in the presence of ethanol): up to 96%

Molecule: NC(N)=O.OO [UHP, Urea hydrogen peroxide]
- bactericidal activity against Lactobacillus [10]: excellent bactericidal activity

Molecule: CC(O)C(=O)O (centres unmarked) [lactic acid]
- reduction of alcohol production rate [11]: 80%
- reduction of yeast viability [11]: 95%

Molecule: O=S(O)O [sulfite]
- effect on yeast populations [12]: did not affect yeast populations

Molecule: virginiamycin
- inhibition of the yeast [13]: does not significantly inhibit the yeast
